Several values for one entry are separate records, joined by “and”; a condition that tells them apart may be missing. Identical values can stand only once. Like-named read-outs stand apart in the source and are kept apart here.
Test system: panel of 66 cancer cell lines
Test: cancer cell line screen, proliferation assay (ATPlite, 72 h)
Type: cell-based, human
Settings: for IC50: Homo sapiens; for raw signal, dose-response (Figure S7a): rep1, rep2, listed as AVX235
From the text: Targeting specific molecular vulnerabilities in cancer is considered a key approach to reducing the adverse effects of chemotherapy. However, the events that govern the susceptibility to suppression of the cPLA2α in cancer remain largely unexplored. We therefore took the approach of screening the antiproliferative activity of AVX420 in a panel of 66 cancer cell lines (hereafter referred to as the cancer cell line screen or CCLS) to allow us to investigate molecular and genetic vulnerabilities to the drug.
Screening of compound activities in 66 cancer cell lines was carried out at the Netherlands Translation Research Center. Briefly, proliferation assays were performed 72 h after compound addition using ATPlite 1step reagent (Perkin Elmer). IC50s calculated by non-linear regression analysis were used as a measure of compound activity for investigating associations with genetic factors. A complete description of the laboratory and data analysis methods are available in the Supplementary Information file (Supplemental Methods: Cancer Cell Line Screening).
Cancer cell line screening
Cell proliferation assays
All cell lines were from the American Type Culture Collection (ATCC) Manassas, Virginia (US) and maintained under ATCC-recommended protocols and within 9 pas- […]
DMSO at -80°C until one hour before use. Cells exposed within one hour after thaw-ing of the compound stocks. Final compound concentration range in the assay was 10 […]
cated by supplier. Compounds were dissolved in 100 % DMSO and stored at room temperature. Final concentration of the reference compounds in the assay was 3.16x10-5 M to 3.16x10-9 M. The final DMSO concentration during incubation was […]
Cell lines were plated in Advanced RPMI 1640 (Gibco, ref 12633-012) cell culture medium, containing 1% Glutamax solution (Gibco, ref 35050-038), 0.4% Pen Strep solution (Gibco, ref 15140-122) and bovine serum. The cPLA2α inhibitors were tested in 0.5% bovine serum (HyClone, ref SH30072.03) with the exception of769-P, A-204, BT-549, SR, T98G, which were tested in the presence of 1.0% serum and A-704 and LNCaP FGS, which were tested in the in the presence of 10% serum. Reference com-pounds were all tested in the presence of 10% bovine serum.
Cells were dispensed in a 384-well plate, at a concentration of 200 - 3200 cells per well, depending on the cell line, in 45 μL medium. Plated cells were incubated in a humidified atmosphere of 5% CO2 at 37 °C. After 24 hours, 5 μL of compound dilu-tion was added and plates were further incubated for another 72 hours. After 72 hours, 25 μL of ATPlite 1Step™ (PerkinElmer) solution was added to each well, and subse-quently shaken for 2 minutes. After 10 minutes of incubation in the dark, the lumines-cence was recorded on an Envision multimode reader (PerkinElmer).
Cell growth control. The cellular doubling times of all cell lines are calculated from the t = 0 hours and t = 72 hours growth signals of the untreated cells. If the doubling time is out of specification (0.5 – 2.0 times deviating from historic average) the assay […]
IC50s were calculated by non-linear regression using IDBS XLfit 5. The percentage growth after 72h (%-growth) was calculated as follows: 100% x (luminescence t = 72h / luminescence untreated,t=72h). This was fitted to the 10log compound concentration (conc) by a 4-parameter logistics curve: %-growth = bottom + (top – bottom) / (1+ 10(logIC50 – conc)*hill)), where hill is the Hill-coefficient, and bottom and top the asymptotic mini-mum and maximum cell growth that the compound allows in that assay.
All analysis were performed in the statistical software package R and visualized using GraphPad Prism version 10.0 .0

CCCCCCCCc1ccc(OCC(=O)c2nc(C(=O)OC)cs2)cc1 [GK470] gave an IC50 (SK-N-AS, SKNAS, peripheral_nervous_system, read-out: pIC50 (converted)) of 19.1 µM, an IC50 (SK-N-AS, read-out: IC50) of 19 µM and an IC50 (SK-N-FI, read-out: IC50) of 17.5 µM. It also gave an IC50 (SNU-C2B, read-out: IC50) of 14.7 µM, an IC50 (SR, read-out: IC50) of 13.8 µM and an IC50 (SUP-T1, SUP-T1, read-out: IC50) of 12.5 µM. The IC50 (SW48, SW48, large_intestine, read-out: pIC50 (converted)) was 20 µM, the IC50 (SW48, SW48, read-out: IC50) was 19.9 µM and the IC50 (SW480, SW480, read-out: IC50) was 13.5 µM. It also gave an IC50 (SW948, SW948, read-out: IC50) of 17.4 µM, an IC50 (SW-620, SW620, read-out: IC50) of 18.1 µM and an IC50 (T98G, read-out: IC50) of 28.4 µM. The IC50 (T-24, T24, read-out: IC50) was 12.3 µM, the IC50 (TT, read-out: IC50) was 21.8 µM and the IC50 (U2OS, U-2 OS, read-out: IC50) was 17.7 µM. For the same compound, the IC50 (U-87 MG, U87MG, central_nervous_system, read-out: pIC50 (converted)) was 17 µM, the IC50 (U-87 MG, read-out: IC50) was 17 µM and the IC50 (VA-ES-BJ, read-out: IC50) was 19.6 µM. The pIC50 (Hs578T, breast) was 4,862, the pIC50 (J82, urinary_tract) was 4,801 and the “raw signal, dose-response (Figure S7a)” value (Jurkat E6.1, Log10 M -4) was 1240 and 667. For the same compound, the “raw signal, dose-response (Figure S7a)” value (Jurkat E6.1, Log10 M -4.5) was 69347 and 62800, the “raw signal, dose-response (Figure S7a)” value (Jurkat E6.1, Log10 M -5) was 1516720 and 2014840 and the “raw signal, dose-response (Figure S7a)” value (Jurkat E6.1, Log10 M -5.5) was 2624707 and 2368947. The “raw signal, dose-response (Figure S7a)” value (Jurkat E6.1, Log10 M -6) was 2496507 and 2717280, the “raw signal, dose-response (Figure S7a)” value (Jurkat E6.1, Log10 M -6.5) was 2786800 and 2504560 and the “raw signal, dose-response (Figure S7a)” value (Jurkat E6.1, Log10 M -7) was 2315800 and 2537613. For the same compound, the “raw signal, dose-response (Figure S7a)” value (Jurkat E6.1, Log10 M -7.5) was 2302120 and 2459400, the “raw signal, dose-response (Figure S7a)” value (Jurkat E6.1, Log10 M -8) was 2509133 and 2328987 and the pIC50 (Jurkat, blood) was 4,903. For the same compound, the pIC50 (K562, blood) was 4,964, the pIC50 (KU812, blood) was 4,982 and the “raw signal, dose-response (Figure S7a)” value (KU812, Log10 M -4) was 2000 and 2307. The “raw signal, dose-response (Figure S7a)” value (KU812, Log10 M -5) was 1822573 and 2233120, the “raw signal, dose-response (Figure S7a)” value (KU812, Log10 M -5.5) was 3176813 and 3177440 and the “raw signal, dose-response (Figure S7a)” value (KU812, Log10 M -6) was 3485480 and 3637827. The “raw signal, dose-response (Figure S7a)” value (KU812, Log10 M -6.5) was 3729800 and 3806653, the “raw signal, dose-response (Figure S7a)” value (KU812, Log10 M -7) was 3631000 and 3828800 and the “raw signal, dose-response (Figure S7a)” value (KU812, Log10 M -7.5) was 3591800 and 3773040. The “raw signal, dose-response (Figure S7a)” value (KU812, Log10 M -8) was 3583000 and 3731880, the pIC50 (LoVo, large_intestine) was 4,715 and the pIC50 (MCF7, breast) was 4,897. For the same compound, the pIC50 (MIAPaCa2, pancreas) was 4,962, the “raw signal, dose-response (Figure S7a)” value (MOLT-4, Log10 M -4) was 6747 and 7320 and the “raw signal, dose-response (Figure S7a)” value (MOLT-4, Log10 M -4.5) was 20107 and 20253. For the same compound, the “raw signal, dose-response (Figure S7a)” value (MOLT-4, Log10 M -5) was 5205800 and 4645067, the “raw signal, dose-response (Figure S7a)” value (MOLT-4, Log10 M -5.5) was 6414373 and 7056240 and the “raw signal, dose-response (Figure S7a)” value (MOLT-4, Log10 M -6) was 6351120 and 6709307. The “raw signal, dose-response (Figure S7a)” value (MOLT-4, Log10 M -6.5) was 7338240 and 7172960, the “raw signal, dose-response (Figure S7a)” value (MOLT-4, Log10 M -7) was 6855453 and 6993467 and the “raw signal, dose-response (Figure S7a)” value (MOLT-4, Log10 M -7.5) was 7127253 and 7052227. For the same compound, the “raw signal, dose-response (Figure S7a)” value (MOLT-4, Log10 M -8) was 6961773 and 6888133, the pIC50 (MeWo, skin) was 4,763 and the pIC50 (NCIH82, lung) was 4,863. The pIC50 (NCIH460, lung) was 4,648, the pIC50 (PA1, ovary) was 4,937 and the pIC50 (RPMI7951, skin) was 4,789. For the same compound, the pIC50 (RT4, urinary_tract) was 4,784, the pIC50 (SHP77, lung) was 4,925 and the pIC50 (SKNFI, peripheral_nervous_system) was 4,757. The “raw signal, dose-response (Figure S7a)” value (SR, Log10 M -4) was 14067 and 13787, the “raw signal, dose-response (Figure S7a)” value (SR, Log10 M -4.5) was 35000 and 26573 and the “raw signal, dose-response (Figure S7a)” value (SR, Log10 M -5) was 2706093 and 3120400. The “raw signal, dose-response (Figure S7a)” value (SR, Log10 M -5.5) was 3256320 and 3580587, the “raw signal, dose-response (Figure S7a)” value (SR, Log10 M -6) was 3226453 and 3322280 and the “raw signal, dose-response (Figure S7a)” value (SR, Log10 M -6.5) was 3558600 and 3526027. For the same compound, the “raw signal, dose-response (Figure S7a)” value (SR, Log10 M -7) was 2883787 and 3035533, the “raw signal, dose-response (Figure S7a)” value (SR, Log10 M -7.5) was 3423760 and 3325493 and the “raw signal, dose-response (Figure S7a)” value (SR, Log10 M -8) was 3355853 and 3535333. The “raw signal, dose-response (Figure S7a)” value (SUP-T1, Log10 M -4) was 23760 and 47307, the “raw signal, dose-response (Figure S7a)” value (SUP-T1, Log10 M -4.5) was 44040 and 66933 and the “raw signal, dose-response (Figure S7a)” value (SUP-T1, Log10 M -5) was 5647093 and 4986840. For the same compound, the “raw signal, dose-response (Figure S7a)” value (SUP-T1, Log10 M -5.5) was 6851973 and 7008107, the “raw signal, dose-response (Figure S7a)” value (SUP-T1, Log10 M -6) was 6610693 and 7288227 and the “raw signal, dose-response (Figure S7a)” value (SUP-T1, Log10 M -6.5) was 6531960 and 6798507. For the same compound, the “raw signal, dose-response (Figure S7a)” value (SUP-T1, Log10 M -7) was 6485200 and 6760880, the “raw signal, dose-response (Figure S7a)” value (SUP-T1, Log10 M -7.5) was 6096293 and 6838453 and the “raw signal, dose-response (Figure S7a)” value (SUP-T1, Log10 M -8) was 6918733 and 6611987. The pIC50 (SUPT1, blood) was 4,905, the pIC50 (SW480, large_intestine) was 4,869 and the pIC50 (SW620, large_intestine) was 4,743. The pIC50 (SW948, large_intestine) was 4,759, the pIC50 (T24, urinary_tract) was 4,911 and the pIC50 (T98G, central_nervous_system) was 4,546. The pIC50 (TT, thyroid) was 4,661, the pIC50 (U2OS, bone) was 4,752 and the pIC50 (VAESBJ, soft_tissue) was 4,707.

Reference: publication PMC11696576, “Next generation thiazolyl ketone inhibitors of cytosolic phospholipase A2 α for targeted cancer therapy” (Nature Communications, 2025)
